Where two headings read alike, the source gives them in different places.
What was measured:
Format in all cases: cell-based
[1] = target: KDR (phospho-KDR, VEGF165-stimulated HUVEC cells) (Homo sapiens (Human), UniProt P35968); assay: KDR autophosphorylation ELISA in HUVEC cells (Example G); conditions: cellular activity
Procedure, shortened: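 First, endothelial cells were cultured a day, then kept without serum for another day. Next came 1 h with serially diluted compound, a brief 5 min VEGF165 stimulus (100 ng/mL), rapid lysis, and ELISA detection of receptor phosphorylation relative to stimulated and non-stimulated controls.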

[2] = target: Mer (phospho-Mer, MERTK-transfected 293A cells) (Homo sapiens (Human), UniProt Q12866); assay: Mer autophosphorylation ELISA in transient transfected 293A cells (Example H); conditions: cellular activity
Procedure, shortened: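 MERTK-transfected 293A; 8-pt dose, 1 h, serum-free, 0.3% DMSO. Cold lysis with orthovanadate and protease/phosphatase inhibitors. Phospho-Mer by DuoSet IC ELISA vs phospho-Mer standard. IC50: 4-PL fit; DMSO = 100%, reference inhibitor = 0%.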

[3] = target: AXL (phospho-AXL, Gas6-stimulated A-172 glioblastoma cells) (Homo sapiens (Human), UniProt P30530); assay: AXL autophosphorylation ELISA in A-172 cells (Example E); conditions: cellular activity, read-out: Axl IC50
Procedure, shortened: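 Phospho-AXL was measured by ELISA in lysates of Gas6-stimulated A-172 cells, starved 24 h in serum-free medium and exposed 1 h to an 8-point compound dilution at 0.3% DMSO.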

[4] = target: Met (phospho-Met, HGF-stimulated PC-3 prostate cancer cells) (Homo sapiens (Human), UniProt P08581); assay: Met autophosphorylation ELISA in PC-3 cells (Example F); conditions: cellular activity, read-out: c-Met IC50
Procedure, shortened: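 Compounds were tested on HGF-stimulated PC-3 cells. After 24 h culture and 3 h serum starvation, cells got compound for 1 h and 100 ng/mL HGF for 10 min, and Met tyrosine phosphorylation was measured by ELISA.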

[5] = KDR autophosphorylation ELISA in HUVEC cells
[6] = Mer autophosphorylation ELISA in transient transfected 293A cells
[7] = AXL autophosphorylation ELISA in A-172 cells
[8] = Met autophosphorylation ELISA in PC-3 cells

Mer (phospho-Mer, MERTK-transfected 293A cells), sequence (Q12866 21-999): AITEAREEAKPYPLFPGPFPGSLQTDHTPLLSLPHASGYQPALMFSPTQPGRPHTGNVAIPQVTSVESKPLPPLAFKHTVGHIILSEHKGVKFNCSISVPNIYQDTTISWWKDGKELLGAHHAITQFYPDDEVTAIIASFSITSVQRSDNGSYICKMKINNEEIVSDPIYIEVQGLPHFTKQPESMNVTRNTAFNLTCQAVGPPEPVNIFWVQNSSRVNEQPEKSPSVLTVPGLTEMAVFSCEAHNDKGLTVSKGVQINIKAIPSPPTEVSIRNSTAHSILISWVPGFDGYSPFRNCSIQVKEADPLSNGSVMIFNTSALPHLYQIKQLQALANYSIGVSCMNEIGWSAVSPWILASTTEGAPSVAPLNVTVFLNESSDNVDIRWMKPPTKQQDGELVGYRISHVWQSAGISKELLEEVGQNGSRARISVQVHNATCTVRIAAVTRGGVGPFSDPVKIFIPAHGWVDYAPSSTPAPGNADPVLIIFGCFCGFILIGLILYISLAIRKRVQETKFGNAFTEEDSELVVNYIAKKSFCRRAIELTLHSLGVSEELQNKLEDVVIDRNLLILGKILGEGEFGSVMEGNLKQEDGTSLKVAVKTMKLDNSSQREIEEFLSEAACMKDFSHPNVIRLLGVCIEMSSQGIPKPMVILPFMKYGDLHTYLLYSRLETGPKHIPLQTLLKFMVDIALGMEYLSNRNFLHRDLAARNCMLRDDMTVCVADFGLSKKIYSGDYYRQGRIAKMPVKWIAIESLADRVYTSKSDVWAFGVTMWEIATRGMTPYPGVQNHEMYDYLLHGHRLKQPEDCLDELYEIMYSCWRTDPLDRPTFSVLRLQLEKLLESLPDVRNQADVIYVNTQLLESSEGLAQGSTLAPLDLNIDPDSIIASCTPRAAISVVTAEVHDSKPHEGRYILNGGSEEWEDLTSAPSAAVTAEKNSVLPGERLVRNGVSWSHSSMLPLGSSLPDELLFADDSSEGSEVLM
Met (phospho-Met, HGF-stimulated PC-3 prostate cancer cells), sequence (P08581 25-1390): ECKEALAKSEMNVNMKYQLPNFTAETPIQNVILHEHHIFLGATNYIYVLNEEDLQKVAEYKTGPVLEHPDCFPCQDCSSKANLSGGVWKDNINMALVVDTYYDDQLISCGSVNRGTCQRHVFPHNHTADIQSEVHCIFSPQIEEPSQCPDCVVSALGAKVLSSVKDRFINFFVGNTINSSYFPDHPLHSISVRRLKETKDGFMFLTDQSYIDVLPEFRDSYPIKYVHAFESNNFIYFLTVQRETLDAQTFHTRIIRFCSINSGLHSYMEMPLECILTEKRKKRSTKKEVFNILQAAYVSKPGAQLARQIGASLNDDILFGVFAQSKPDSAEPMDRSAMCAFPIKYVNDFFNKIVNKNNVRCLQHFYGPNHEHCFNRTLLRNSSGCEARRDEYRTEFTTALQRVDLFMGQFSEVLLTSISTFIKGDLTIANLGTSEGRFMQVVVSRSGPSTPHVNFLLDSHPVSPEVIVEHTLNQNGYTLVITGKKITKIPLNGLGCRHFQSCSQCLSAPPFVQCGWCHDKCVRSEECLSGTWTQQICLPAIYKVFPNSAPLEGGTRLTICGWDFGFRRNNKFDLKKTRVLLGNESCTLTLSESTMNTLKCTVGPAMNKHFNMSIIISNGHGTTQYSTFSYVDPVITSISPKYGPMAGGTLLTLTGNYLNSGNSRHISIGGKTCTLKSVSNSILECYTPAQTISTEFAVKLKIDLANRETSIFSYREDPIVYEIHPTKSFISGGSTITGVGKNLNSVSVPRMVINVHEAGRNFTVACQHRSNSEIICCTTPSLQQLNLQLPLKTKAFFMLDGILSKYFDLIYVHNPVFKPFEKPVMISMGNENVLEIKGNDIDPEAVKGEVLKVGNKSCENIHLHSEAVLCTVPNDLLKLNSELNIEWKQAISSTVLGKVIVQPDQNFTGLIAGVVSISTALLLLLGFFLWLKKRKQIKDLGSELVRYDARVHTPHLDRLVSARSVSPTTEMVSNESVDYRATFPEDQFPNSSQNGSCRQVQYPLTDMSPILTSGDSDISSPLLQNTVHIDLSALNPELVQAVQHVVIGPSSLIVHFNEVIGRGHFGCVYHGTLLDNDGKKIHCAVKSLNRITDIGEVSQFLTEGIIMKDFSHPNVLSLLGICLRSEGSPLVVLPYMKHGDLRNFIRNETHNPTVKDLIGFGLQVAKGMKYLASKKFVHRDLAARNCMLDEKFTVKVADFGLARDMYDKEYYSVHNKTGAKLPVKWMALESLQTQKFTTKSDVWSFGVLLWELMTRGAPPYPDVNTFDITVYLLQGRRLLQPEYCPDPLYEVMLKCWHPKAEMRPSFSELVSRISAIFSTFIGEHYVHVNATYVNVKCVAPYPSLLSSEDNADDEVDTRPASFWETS
AXL (phospho-AXL, Gas6-stimulated A-172 glioblastoma cells), sequence (P30530 26-894): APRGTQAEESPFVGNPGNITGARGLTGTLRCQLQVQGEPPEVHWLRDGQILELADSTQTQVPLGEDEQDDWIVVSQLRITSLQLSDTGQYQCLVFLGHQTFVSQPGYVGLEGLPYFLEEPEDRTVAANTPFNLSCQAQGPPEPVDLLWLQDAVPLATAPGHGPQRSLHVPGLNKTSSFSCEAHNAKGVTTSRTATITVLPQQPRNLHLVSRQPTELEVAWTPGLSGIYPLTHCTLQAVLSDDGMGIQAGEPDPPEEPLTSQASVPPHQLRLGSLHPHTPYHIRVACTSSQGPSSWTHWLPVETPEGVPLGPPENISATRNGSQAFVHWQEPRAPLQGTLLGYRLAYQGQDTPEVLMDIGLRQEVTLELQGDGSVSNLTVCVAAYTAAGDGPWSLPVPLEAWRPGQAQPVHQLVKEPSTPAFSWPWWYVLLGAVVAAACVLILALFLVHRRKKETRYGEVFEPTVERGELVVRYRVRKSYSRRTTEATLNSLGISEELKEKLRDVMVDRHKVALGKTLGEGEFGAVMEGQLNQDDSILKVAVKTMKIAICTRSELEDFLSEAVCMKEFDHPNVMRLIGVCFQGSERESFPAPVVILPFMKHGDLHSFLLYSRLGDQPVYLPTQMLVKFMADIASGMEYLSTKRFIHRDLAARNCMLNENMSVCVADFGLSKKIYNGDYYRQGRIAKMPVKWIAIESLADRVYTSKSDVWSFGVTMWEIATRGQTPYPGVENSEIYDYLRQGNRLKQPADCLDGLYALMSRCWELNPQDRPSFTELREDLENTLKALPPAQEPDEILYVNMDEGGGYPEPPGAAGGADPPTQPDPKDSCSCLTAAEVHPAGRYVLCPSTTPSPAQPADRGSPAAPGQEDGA
KDR (phospho-KDR, VEGF165-stimulated HUVEC cells), sequence (P35968 20-1356): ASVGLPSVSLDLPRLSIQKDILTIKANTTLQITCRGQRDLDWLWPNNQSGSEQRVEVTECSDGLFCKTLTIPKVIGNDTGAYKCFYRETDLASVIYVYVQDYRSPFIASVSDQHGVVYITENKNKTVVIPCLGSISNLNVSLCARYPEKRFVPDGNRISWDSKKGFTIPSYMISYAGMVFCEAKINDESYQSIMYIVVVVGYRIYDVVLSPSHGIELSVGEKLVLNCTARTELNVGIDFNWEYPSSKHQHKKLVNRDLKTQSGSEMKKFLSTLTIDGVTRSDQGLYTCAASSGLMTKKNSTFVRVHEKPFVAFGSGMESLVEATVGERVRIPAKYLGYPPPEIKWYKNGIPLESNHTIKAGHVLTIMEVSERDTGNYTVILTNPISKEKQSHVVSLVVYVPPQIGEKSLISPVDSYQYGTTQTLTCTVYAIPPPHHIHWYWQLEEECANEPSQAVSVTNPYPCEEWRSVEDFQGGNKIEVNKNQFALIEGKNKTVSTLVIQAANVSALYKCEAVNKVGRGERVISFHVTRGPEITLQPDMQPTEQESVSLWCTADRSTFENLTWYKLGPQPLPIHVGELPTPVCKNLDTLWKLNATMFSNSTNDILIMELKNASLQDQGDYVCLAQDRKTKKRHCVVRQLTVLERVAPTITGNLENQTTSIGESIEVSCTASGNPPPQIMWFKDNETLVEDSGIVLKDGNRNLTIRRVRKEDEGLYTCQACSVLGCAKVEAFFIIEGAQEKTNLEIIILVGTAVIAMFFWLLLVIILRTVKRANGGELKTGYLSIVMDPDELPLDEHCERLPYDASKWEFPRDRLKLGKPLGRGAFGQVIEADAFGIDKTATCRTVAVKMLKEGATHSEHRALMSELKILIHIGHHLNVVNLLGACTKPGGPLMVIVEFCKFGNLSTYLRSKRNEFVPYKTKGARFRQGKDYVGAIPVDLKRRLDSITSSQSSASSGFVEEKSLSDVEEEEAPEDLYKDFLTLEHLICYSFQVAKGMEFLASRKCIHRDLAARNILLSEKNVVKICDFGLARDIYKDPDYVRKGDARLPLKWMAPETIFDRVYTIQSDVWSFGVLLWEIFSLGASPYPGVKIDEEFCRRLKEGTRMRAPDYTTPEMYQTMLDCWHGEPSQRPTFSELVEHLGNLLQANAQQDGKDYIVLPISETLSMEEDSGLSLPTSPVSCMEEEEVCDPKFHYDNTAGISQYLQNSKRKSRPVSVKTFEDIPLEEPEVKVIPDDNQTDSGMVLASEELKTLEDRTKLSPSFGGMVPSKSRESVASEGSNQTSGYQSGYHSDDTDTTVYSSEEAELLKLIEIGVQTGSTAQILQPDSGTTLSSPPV

Row | SMILES | IC50 [1, 5] [nM] | IC50 [2, 6] [nM] | IC50 [3, 7] [nM] | IC50 [4, 8] [nM] | IC50 ([1]; HUVEC cells) [nM] | IC50 ([2]; transfected 293A cells) [nM] | IC50 ([3]; A-172 cells) [nM] | IC50 ([4]; PC-3 cells) [nM]
1 | CCOc1nc2c(Oc3ccc(NC(=O)c4c(C)ncc(-c5ccc(F)cc5)c4O)cc3)ccnc2cc1OC [Compound 671, N-[4-[(6-ethoxy-7-methoxy-1,5-naphthyridin-4-yl)oxy]phenyl]-5-(4-fluorophenyl)-4-hydroxy-2-methylpyridine-3-carboxamide] | < 100 | < 100 | < 100 | < 100 | – | – | – | –
2 | COCCOc1nc2c(Oc3ccc(NC(=O)c4c(C)nc(C)c(-c5ccc(F)cc5)c4O)cc3F)ccnc2cc1OC [Compound 207, N-[3-Fluoro-4-[[7-methoxy-6-(2-methoxyethoxy)-1,5-naphthyridin-4-yl]oxy]phenyl]-5-(4-fluorophenyl)-4-hydroxy-2,6-dimethylpyridine-3-carboxamide] | < 100 | < 100 | < 100 | < 100 | – | – | – | –
3 | CCOc1nc2c(Oc3ccc(NC(=O)c4cnc(C)c(-c5ccc(F)cc5C)c4O)cc3F)ccnc2cc1OC [Compound 677, N-[4-[(6-ethoxy-7-methoxy-1,5-naphthyridin-4-yl)oxy]-3-fluorophenyl]-5-(4-fluoro-2-methylphenyl)-4-hydroxy-6-methylpyridine-3-carboxamide] | < 100 | < 100 | < 100 | < 100 | – | – | – | –
4 | Cn1cc(C(=O)Nc2ccc(Oc3ccnc4cccnc34)c(F)c2)c(=O)c(-c2ccc(F)cc2)c1CO [Compound 748, N-[3-fluoro-4-(1,5-naphthyridin-4-yloxy)phenyl]-5-(4-fluorophenyl)-6-(hydroxymethyl)-1-methyl-4-oxopyridine-3-carboxamide] | > 300 | < 100 | < 100 | < 100 | – | – | – | –
5 | COc1cc2nccc(Oc3ccc(NC(=O)c4nnc(C)c(-c5ccc(F)cc5)c4OC)cc3F)c2cc1OC [Compound 571, N-[4-(6,7-Dimethoxyquinolin-4-yl)oxy-3-fluorophenyl]-5-(4-fluorophenyl)-4-methoxy-6-methylpyridazine-3-carboxamide] | < 100 | < 100 | < 100 | < 100 | – | – | – | –
6 | COc1cnc2c(Oc3ccc(NC(=O)c4c(C)ncc(-c5ccc(F)c(C)c5)c4O)cc3F)ccnc2c1 [Compound 795, N-[3-fluoro-4-[(7-methoxy-1,5-naphthyridin-4-yl)oxy]phenyl]-5-(4-fluoro-3-methylphenyl)-4-hydroxy-2-methylpyridine-3-carboxamide] | < 100 | < 100 | < 100 | < 100 | – | – | – | –
7 | COc1cc2nccc(Oc3ccc(NC(=O)c4cn(CC(F)F)c(C)c(-c5ccc(F)cc5C)c4=O)cc3)c2nc1OC [Compound 722, 1-(2,2-difluoroethyl)-N-[4-[(6,7-dimethoxy-1,5-naphthyridin-4-yl)oxy]phenyl]-5-(4-fluoro-2-methylphenyl)-6-methyl-4-oxopyridine-3-carboxamide] | > 300 | < 100 | < 100 | < 100 | – | – | – | –
8 | Cc1ncc(C(=O)Nc2ccc(Oc3ccnc4cnc(Cl)cc34)c(F)c2)c(=O)n1-c1ccc(F)cc1 [Compound 497, N-[4-[(6-chloro-1,7-naphthyridin-4-yl)oxy]-3-fluorophenyl]-1-(4-fluorophenyl)-2-methyl-6-oxopyrimidine-5-carboxamide] | > 300 | < 100 | < 100 | < 100 | – | – | – | –
9 | CCOc1nc2c(Oc3ccc(NC(=O)c4c(COC)nc(C)c(-c5ccc(F)cc5)c4O)cc3F)ccnc2cc1OC [Compound 676, N-[4-[(6-ethoxy-7-methoxy-1,5-naphthyridin-4-yl)oxy]-3-fluorophenyl]-5-(4-fluorophenyl)-4-hydroxy-2-(methoxymethyl)-6-methylpyridine-3-carboxamide] | < 100 | < 100 | < 100 | < 100 | – | – | – | –
10 | COCc1cnn(-c2ccc(F)cc2)c(=O)c1C(=O)Nc1ccc(Oc2ccnc3cc(OC)c(OC)nc23)cc1 [Compound 537, N-[4-[(6,7-dimethoxy-1,5-naphthyridin-4-yl)oxy]phenyl]-2-(4-fluorophenyl)-5-(methoxymethyl)-3-oxopyridazine-4-carboxamide] | < 100 | < 100 | < 100 | < 100 | – | – | – | –
11 | CCc1c(C)c(C(=O)Nc2ccc(Oc3ccnc4cc(OC)cnc34)c(F)c2)c(=O)n(-c2ccc(F)cc2)c1C [Compound 335, 5-ethyl-N-[3-fluoro-4-[(7-methoxy-1,5-naphthyridin-4-yl)oxy]phenyl]-1-(4-fluorophenyl)-4,6-dimethyl-2-oxopyridine-3-carboxamide] | > 300 | < 100 | < 100 | < 100 | – | – | – | –
12 | COc1cc2nccc(Oc3ccc(NC(=O)c4c5n(c(C)c(-c6ccc(F)cc6C)c4=O)CCOC5)cc3F)c2nc1OC [Compound 782, N-[4-[(6,7-dimethoxy-1,5-naphthyridin-4-yl)oxy]-3-fluorophenyl]-7-(4-fluoro-2-methylphenyl)-6-methyl-8-oxo-3,4-dihydro-1H-pyrido[2,1-c][1,4]oxazine-9-carboxamide] | > 300 | < 100 | < 100 | < 100 | – | – | – | –
13 | COc1cc2c(Oc3ccc(NC(=O)c4cnc(C)n(-c5ccc(F)cc5)c4=O)cc3F)ccnc2cn1 [Compound 499, N-[3-fluoro-4-[(6-methoxy-1,7-naphthyridin-4-yl)oxy]phenyl]-1-(4-fluorophenyl)-2-methyl-6-oxopyrimidine-5-carboxamide] | 100 to 300 | < 100 | < 100 | < 100 | – | – | – | –
14 | COc1nc2c(Oc3ccc(NC(=O)c4c(C)nc(C)c(-c5ccc(F)cc5C)c4O)cc3F)ccnc2cc1C [Compound 471, N-[3-fluoro-4-[(6-methoxy-7-methyl-1,5-naphthyridin-4-yl)oxy]phenyl]-5-(4-fluoro-2-methylphenyl)-4-hydroxy-2,6-dimethylpyridine-3-carboxamide] | < 100 | < 100 | < 100 | < 100 | – | – | – | –
15 | COc1cc2ncnc(Oc3ccc(NC(=O)c4ccc(C)n(-c5ccc(F)cc5)c4=O)cc3F)c2nc1OC [Compound 635] | < 100 | < 100 | < 100 | < 100 | – | – | – | –
16 | COc1cc2nccc(Oc3cc(C)c(NC(=O)c4cn(C)c(C)c(-c5ccc(F)cc5)c4=O)cc3F)c2nc1OC [Compound 744, N-[4-[(6,7-dimethoxy-1,5-naphthyridin-4-yl)oxy]-5-fluoro-2-methylphenyl]-5-(4-fluorophenyl)-1,6-dimethyl-4-oxopyridine-3-carboxamide] | > 300 | < 100 | < 100 | < 100 | – | – | – | –
17 | CCOc1nc2c(Oc3ccc(NC(=O)c4c(COC)nc(C)c(-c5ccc(F)cc5)c4O)cc3)ccnc2cc1OC [Compound 672, N-[4-[(6-ethoxy-7-methoxy-1,5-naphthyridin-4-yl)oxy]phenyl]-5-(4-fluorophenyl)-4-hydroxy-2-(methoxymethyl)-6-methylpyridine-3-carboxamide] | < 100 | < 100 | < 100 | < 100 | – | – | – | –
18 | COc1cc2nccc(Oc3ccc(NC(=O)c4c(C)n(CCF)cc(-c5ccc(F)c(F)c5)c4=O)cc3F)c2nc1OC [Compound 815, 5-(3,4-difluorophenyl)-N-[4-[(6,7-dimethoxy-1,5-naphthyridin-4-yl)oxy]-3-fluorophenyl]-1-(2-fluoroethyl)-2-methyl-4-oxopyridine-3-carboxamide] | – | – | – | – | 100 to 300 | < 100 | < 100 | < 100
19 | COc1cnc2c(Oc3ccc(NC(=O)c4c(C)nc(C)c(-c5ccc(OC)c(C)c5)c4O)cc3F)ccnc2c1 [Compound 692, N-[3-fluoro-4-[(7-methoxy-1,5-naphthyridin-4-yl)oxy]phenyl]-4-hydroxy-5-(4-methoxy-3-methylphenyl)-2,6-dimethylpyridine-3-carboxamide] | < 100 | < 100 | 100 to 300 | < 100 | – | – | – | –
20 | COc1cc2nccc(Oc3ccc(NC(=O)c4cn5c(c(-c6ccc(F)cc6)c4=O)OC(C)C5)cc3F)c2nc1OC (centres unmarked) [Compound 759, N-[4-[(6,7-dimethoxy-1,5-naphthyridin-4-yl)oxy]-3-fluorophenyl]-8-(4-fluorophenyl)-2-methyl-7-oxo-2,3-dihydro-[1,3]oxazolo[3,2-a]pyridine-6-carboxamide] | < 100 | < 100 | < 100 | < 100 | – | – | – | –

— patent US12371428B2 (Exelixis, Inc., priority 2019, dated 2025)
